Experimental findings from patent US8232315B2, “Methods for treating drug addiction and improving addiction-related behavior” (SK Biopharmaceuticals Co., Ltd., priority 2009, dated 2012) are described below.

Assay [1] relates to rhesus monkeys trained to self-administer cocaine. Nature of the assay: Cocaine self-administration, dose-ranging studies with peak unit dose of i.v. cocaine and food components. Format: in vivo, rhesus monkeys (Macaca mulatta). The protocol: The test compound (O-carbamoyl-(D)-phenylalaminol) was tested for the effects on cocaine self-administration in rhesus monkeys. Rhesus monkeys were trained to self-administer cocaine (0.032 mg/kg/inj, i.v.) and 1 g banana-flavored food pellets during 2-hr experimental sessions in the Rapid Assessment Procedure. Each session consisted of four 20-min components of drug availability (100-min), each separated by a 5-min timeout period. The four components of drug availability were preceded and followed by […] components of food availability. During training, unit doses of cocaine were varied across components of the session (0.001-0.03 or 0.01-0.32 mg/kg/inj) to provide full dose effect curves for cocaine self-administration. The position and slope of the dose-effect curve varied among monkeys and, generally, was represented by an inverted-U shape function characteristic for cocaine self-administration under fixed-ratio schedules. In some sessions, the unit dose of cocaine at the peak of the dose-effect curve for i.v. self-administration (0.0032 or 0.032 mg/kg/inj) was kept constant across components of the session. After baseline cocaine dose-effect curves and the effects of peak dose availability throughout the session were stable, experiments with test compound were begun.
Two types of cocaine self-administration experiments were conducted to evaluate pretreatment with test compound: (1) test compound dose-ranging studies and (2) effects of a single dose of test compound on cocaine dose-effect curves. In initial dose-ranging experiments, test compound was studied in individual monkeys by administering i.m. doses of 10-32 mg/kg 30-min before the session.
Subjects. Five male rhesus monkeys (Macaca mulatta), 89B013, 96D155, 97D105, RQ22 15, and 93N082, were trained to respond for the delivery of 1-g banana pellets under a program of gradually increasing values of a fixed-ratio (FR) schedule until performance was maintained under the terminal FR 30 response schedule. Then, a double-lumen intravenous catheter was surgically implanted under aseptic-conditions in each monkey. Subsequently, monkeys were trained to respond for cocaine (see below). All monkeys were maintained under identical housing conditions as specified under contract DA-7-8073. Individual monkeys had visual, auditory, and olfactory contact with other monkeys, and several types of enrichment devices were provided in the home chamber.
Apparatus. All experimental equipment was identical to that used in our previously described drug self-administration studies. Briefly, each monkey was housed individually in a well-ventilated stainless steel chamber (64×64×79 cm). The home cages of all monkeys were modified to include an operant panel (28×28 cm) mounted on the front wall and fitted with response keys that could be trans-illuminated by red or green stimulus lights (LEDs). The operant panel also supported an externally-mounted pellet dispenser (Gerbrands, Model G5210) that delivered 1 gm fruit-flavored food pellets (P. J. Noyes Co., Lancaster, N.H.) to a food receptacle mounted on the cage beneath the operant response panel. Two syringe pumps (Model B5P-IE, Braintree Scientific, Braintree, Mass.; or Model 980210, Harvard Apparatus, South Natick, Mass.) were mounted above each cage for delivery of saline or drug solutions through the double-lumen intravenous catheters. Operation of the operant panels and data collection were accomplished with an LBM-compatible computer supplied by Med Associates, Inc., and located in an adjacent room. The experimental control hardware was supplied by Med Associates, Inc., and was controlled by customized-software written in MedState Notation.
Test sessions. A diagram of the Rapid Assessment Procedure is shown in the drawing. Test sessions occurred twice daily beginning at 11 a.m. and 3 p.m. […]

Assay [2] relates to rats trained to discriminate cocaine (10 mg/kg) from saline. Briefly: Substitution for the discriminative stimulus effects of cocaine in rats (two-lever drug discrimination). The conditions noted are these: for ED50: Rattus norvegicus, linear regression against log10 doses from 10 to 100 mg/kg. Format: in vivo, Sprague-Dawley rats. The protocol: Test compound was tested for its ability to substitute for the discriminative stimulus effects of cocaine (10 mg/kg) in rats.
Six male Sprague-Dawley rats were trained to discriminate cocaine (10 mg/kg) from saline using a two-lever choice methodology. Food was available as a reinforcer under a fixed ratio 10 schedule when responding occurred on the injection appropriate lever. All tests occurred in standard, commercially available chambers (Coulbourn Instruments), using 45 mg food pellets (Bioserve) as reinforcers.
Training sessions occurred in a double alternating fashion, and tests were conducted between pairs of identical training sessions (i.e., between either two saline or two cocaine training sessions). Tests occurred only if, in the two preceding training sessions, subjects met the criteria of emitting 85% of responses on the injection correct lever for both the first reinforcer (first fixed ratio) and the total session. Test sessions lasted for twenty minutes, or until twenty reinforcers had been obtained. Doses of the test compound for which fewer, than three rats completed the first fixed ratio were not considered in the characterization of discriminative stimulus effects.
Intraperitoneal injections (1 ml/kg) of test compound, or its vehicle (0.9% saline), occurred 60 minutes prior to the start of the test session. A starting dose for test compound of 2.5 mg/kg was determined based upon data supplied by the project officer, and a dose range of 2.5 to 100 mg/kg was examined.

“Also recorded” adds a separate entry of the source. Read-outs that look alike come from different tables or passages of the source.

Regarding `NC(=O)OC[C@H](N)Cc1ccccc1` [test compound, O-carbamoyl-(D)-phenylalaminol], the “Effect on i.v. cocaine self-administration behavior” value in assay [1] (10 mg/kg i.m., any of the four monkeys) is reported as “did not alter”. For the same compound, the “Effect on self-administration of the peak unit dose of i.v. cocaine” value is listed as “did not have consistent effects; also recorded: without appreciable effect” in assay [1] (10 mg/kg i.m., averaged for the group) and “markedly decreased” in assay [1] (32 mg/kg i.m., averaged for the group). In addition, the “Food-maintained performance, Food 1 and Food 2” value is recorded as “unchanged” in assay [1] (10 mg/kg i.m., monkeys 89B013 and RQ2215); “markedly decreased” in assay [1] (32 mg/kg i.m., monkey 93N082). Further, in assay [1] (10 mg/kg i.m., monkeys 96D155 and 93N082), the “Food-maintained responding, Food 2” value is “decreased food-maintained responding”. In addition, the “Food-maintained behavior, Food 1” value in assay [1] (18 mg/kg i.m., any monkey) is on record as “not appreciably affected”. Further, the “Decrease in self-administration of the peak unit dose of i.v. cocaine” value in assay [1] (18 mg/kg i.m., monkey 89B013) is recorded as “approximately 50%”; in assay [1] (32 mg/kg i.m. 30 min before session, averaged for the group of monkeys), “approximately 50%”. In addition, the “Food-maintained behavior, Food 2” value in assay [1] (18 mg/kg i.m., monkeys 89B013 and 93N082) is listed as “greatly decreased”; in assay [1] (18 mg/kg i.m., monkeys 96D155 and RQ2215), “did not change behavior”. Moreover, the “Effect on i.v. self-administration behavior” value in assay [1] (18 mg/kg i.m., remaining three subjects) is listed as “did not appreciably alter”. Also, the “Effect on food-maintained behavior” value in assay [1] (32 mg/kg i.m. (18 or 32 mg/kg), prior to or following cocaine components) is recorded as “without consistently disrupting food-maintained behavior; also recorded: did not consistently alter”; in assay [1] (pretreatment doses 10-32 mg/kg i.m., averaged for the group, dose-ranging studies), “only inconsistent effects”. In addition, in assay [1] (32 mg/kg i.m., each of the three monkeys studied), the “Reduction of self-administration of the peak unit dose of i.v. cocaine” value is listed as at least 50%. Besides, the “Food-maintained responding, either food component” value in assay [1] (32 mg/kg i.m., monkeys 96D155 and RQ2215) is “did not alter responding”. Further, the ED50 in assay [2] (i.p. 60 min before session, read-out: ED50, substitution for the discriminative stimulus effects of 10 mg/kg cocaine, total session) turned out to be 37.4 mg/kg; in assay [2] (ip, read-out: ED50, substitution for cocaine, first reinforcer), 37.5 mg/kg. Also, in assay [2] (dose range 2.5 to 100 mg/kg i.p.), the “Substitution for the discriminative stimulus effects of 10 mg/kg cocaine” value is given as “substituted fully; also recorded: fully substituted”. Besides, in assay [2] (following 100 mg/kg i.p.), the “Response rate, % of vehicle control, first reinforcer” value was 37%. In addition, the “Response rate, % of vehicle control, total session” value in assay [2] (following 100 mg/kg i.p.) stood at 41%.
